Experimental data published in PubChem BioAssay AID212 (DTP/NCI, 2004).
Where “and” joins values, the source holds several entries; their conditions need not be identical. Equal values may be shown once. Results filed as inconclusive are left out.

Tested on: BDF1 mice, colon carcinoma 38 sc, T/C %
Assay: NCI In Vivo Anticancer Drug Screen. Data for tumor model Colon Carcinoma 38 (subcutaneous) in B6D2F1 (BDF1) mice
Settings: endpoint: median tumor weight (est.), higher = larger tumour
Procedure, shortened: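 Transplantable tumor in mice; compound-treated vs vehicle-dosed controls. Measured survival or tumor size; value = T ÷ C.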

[1] = dose: 6.25 mg/kg/injection, schedule: Q07DX002 (ip), vehicle: saline with Tween-80
[2] = dose: 12.5 mg/kg/injection, schedule: Q07DX002 (ip), vehicle: saline
[3] = dose: 25.0 mg/kg/injection, schedule: Q07DX002 (ip), vehicle: saline with Tween-80
[4] = dose: 25.0 mg/kg/injection, schedule: Q07DX002 (ip), vehicle: saline
[5] = dose: 50.0 mg/kg/injection, schedule: Q07DX002 (ip), vehicle: saline
[6] = dose: 100.0 mg/kg/injection, schedule: Q07DX002 (ip), vehicle: saline
[7] = dose: 200.0 mg/kg/injection, schedule: Q07DX002 (ip), vehicle: saline
[8] = dose: 25.0 mg/kg/injection, schedule: Q07DX002 (ip), vehicle: suspension in saline
[9] = dose: 100.0 mg/kg/injection, schedule: Q07DX002 (ip), vehicle: suspension in saline

**Q.** Which T/C [1] does the source give for `CN1CCN(CCCN2c3ccccc3Sc3ccc(C(F)(F)F)cc32)CC1` here?
**A.** Its T/C is 104 % of control.

**Q.** What about the T/C (dose: 6.25 mg/kg/injection, schedule: Q07DX002 (ip), vehicle: saline) of the same molecule?
**A.** Its T/C is 116 % of control.

**Q.** What about the T/C [2] of the same molecule?
**A.** Its T/C is 112 % of control.

**Q.** And the T/C [3]?
**A.** The T/C was 91 % of control.

**Q.** What about the T/C [4] of the same molecule?
**A.** Its T/C is 97 % of control.

**Q.** And the T/C (dose: 50.0 mg/kg/injection, schedule: Q07DX002 (ip), vehicle: saline with Tween-80)?
**A.** Its T/C is 96 % of control.

**Q.** And the T/C [5]?
**A.** Its T/C is 90 % of control.

**Q.** What about the T/C [6] of the same molecule?
**A.** The T/C was 96 % of control.

**Q.** And the T/C [7]?
**A.** The T/C was 74 % of control.

**Q.** What does the source list for `CCC[CH2][Hg][Cl]`?
**A.** T/C (dose: 0.62 mg/kg/injection, schedule: Q07DX002 (ip), vehicle: Klucel (hydroxypropylcellulose) (HPC)): 99 % of control; T/C (dose: 2.5 mg/kg/injection, schedule: Q07DX002 (ip), vehicle: Klucel (hydroxypropylcellulose) (HPC)): 92 % of control; T/C (dose: 5.0 mg/kg/injection, schedule: Q07DX002 (ip), vehicle: Klucel (hydroxypropylcellulose) (HPC)): 105 % of control; T/C (dose: 20.0 mg/kg/injection, schedule: Q07DX002 (ip), vehicle: Klucel (hydroxypropylcellulose) (HPC)): 113 % of control

**Q.** With `CCN(CC)CCCC(C)Nc1c2ccc(Cl)cc2nc2ccc(OC)cc12` (stereo unspecified) as the molecule, how does the T/C (dose: 16.0 mg/kg/injection, schedule: Q07DX003 (ip), vehicle: suspension in saline) read?
**A.** Its T/C is 96 % of control and 103 % of control.

**Q.** What about the T/C (dose: 32.0 mg/kg/injection, schedule: Q07DX003 (ip), vehicle: suspension in saline) of the same molecule?
**A.** The T/C was 95 % of control and 106 % of control.

**Q.** And the T/C (dose: 64.0 mg/kg/injection, schedule: Q07DX003 (ip), vehicle: suspension in saline)?
**A.** Its T/C is 53 % of control.

**Q.** And the T/C (dose: 128.0 mg/kg/injection, schedule: Q07DX003 (ip), vehicle: suspension in saline)?
**A.** Its T/C is 79 % of control.

**Q.** Which T/C [2] does the source give for `O=C(/C=C(\Cl)C(=O)NO)NO` here?
**A.** The T/C was 154 % of control.

**Q.** What about the T/C (dose: 12.5 mg/kg/injection, schedule: Q07DX002 (ip), vehicle: suspension in saline) of the same molecule?
**A.** The T/C was 82 % of control.

**Q.** And the T/C [4]?
**A.** The T/C was 159 % of control.

**Q.** What about the T/C [8] of the same molecule?
**A.** The T/C was 101 % of control.

**Q.** And the T/C [5]?
**A.** The T/C was 175 % of control.

**Q.** And the T/C [6]?
**A.** The T/C was 119 % of control.

**Q.** What about the T/C [9] of the same molecule?
**A.** Its T/C is 94 % of control.

**Q.** For `O=c1cc[nH]c(=O)o1`, which T/C (dose: 12.2 mg/kg/injection, schedule: Q01DX009 (ip), vehicle: water) is on record?
**A.** Its T/C is 119 % of control.

**Q.** What about the T/C (dose: 18.5 mg/kg/injection, schedule: Q01DX009 (ip), vehicle: water) of the same molecule?
**A.** Its T/C is 75 % of control.

**Q.** What about the T/C (dose: 28.0 mg/kg/injection, schedule: Q01DX009 (ip), vehicle: water) of the same molecule?
**A.** Its T/C is 83 % of control.

**Q.** Which T/C [4] does the source give for `Cn1cnc([N+](=O)[O-])c1Sc1ncn[nH]1` here?
**A.** Its T/C is 78 % of control.

**Q.** And the T/C [8]?
**A.** The T/C was 112 % of control.

**Q.** What about the T/C [5] of the same molecule?
**A.** Its T/C is 73 % of control.

**Q.** What about the T/C (dose: 50.0 mg/kg/injection, schedule: Q07DX002 (ip), vehicle: suspension in saline) of the same molecule?
**A.** The T/C was 118 % of control.

**Q.** And the T/C [6]?
**A.** Its T/C is 79 % of control.

**Q.** What about the T/C [9] of the same molecule?
**A.** Its T/C is 85 % of control.

**Q.** And the T/C [7]?
**A.** The T/C was 52 % of control.

**Q.** What about the T/C (dose: 400.0 mg/kg/injection, schedule: Q07DX002 (ip), vehicle: saline) of the same molecule?
**A.** The T/C was 65 % of control.

**Q.** What about the T/C (dose: 400.0 mg/kg/injection, schedule: Q07DX002 (ip), vehicle: suspension in saline) of the same molecule?
**A.** The T/C was 107 % of control.

**Q.** What about the T/C (dose: 800.0 mg/kg/injection, schedule: Q07DX002 (ip), vehicle: saline) of the same molecule?
**A.** Its T/C is 84 % of control.

**Q.** Which results are given for `CCN1/C(=C/C=C/C=C\C=C\c2sc3ccc4ccccc4c3[n+]2CC)Sc2ccc3ccccc3c21`?
**A.** T/C (dose: 2.5 mg/kg/injection, schedule: Q07DX002 (ip), vehicle: saline with Tween-80): 105 % of control; T/C (dose: 5.0 mg/kg/injection, schedule: Q07DX002 (ip), vehicle: saline with Tween-80): 89 % of control; T/C (dose: 10.0 mg/kg/injection, schedule: Q07DX002 (ip), vehicle: saline with Tween-80): 69 % of control; T/C (dose: 20.0 mg/kg/injection, schedule: Q07DX002 (ip), vehicle: saline with Tween-80): 76 % of control

**Q.** Which results are given for `C[CH2][Sn]1([CH2]C)[O]OC(c2ccccc2)[O]1` (stereo unspecified)?
**A.** T/C (dose: 1.56 mg/kg/injection, schedule: Q07DX002 (ip), vehicle: saline with Tween-80): 121 % of control; T/C [1]: 237 % of control; T/C (dose: 12.5 mg/kg/injection, schedule: Q07DX002 (ip), vehicle: saline with Tween-80): 195 % of control; T/C [3]: 84 % of control

**Q.** How did the T/C (dose: 42.0 mg/kg/injection, schedule: Q07DX002 (ip), vehicle: saline with Tween-80) turn out when `Nc1ccc(C(=O)O)c(O)c1` was run?
**A.** The T/C was 120 % of control.

**Q.** What about the T/C (dose: 84.0 mg/kg/injection, schedule: Q07DX002 (ip), vehicle: saline with Tween-80) of the same molecule?
**A.** The T/C was 89 % of control.

**Q.** And the T/C (dose: 168.0 mg/kg/injection, schedule: Q07DX002 (ip), vehicle: saline with Tween-80)?
**A.** The T/C was 93 % of control.

**Q.** What about the T/C (dose: 337.0 mg/kg/injection, schedule: Q07DX002 (ip), vehicle: saline with Tween-80) of the same molecule?
**A.** Its T/C is 80 % of control.

**Q.** And the T/C (dose: 675.0 mg/kg/injection, schedule: Q07DX002 (ip), vehicle: saline with Tween-80)?
**A.** The T/C was 111 % of control.

**Q.** For `S=C=NCCc1ccccc1`, which T/C (dose: 100.0 mg/kg/injection, schedule: Q07DX002 (ip), vehicle: saline with Tween-80) is on record?
**A.** Its T/C is 82 % of control and 105 % of control.
